From patent US10738057B2, “Tertiary alcohols as PI3K-γ inhibitors” (Incyte Corporation, priority 2017, dated 2020)
Where a name gives a salt, the structure may show the parent alone. Read-outs that look alike come from different tables or passages of the source.

Tests used:
[1] = target: PI3Kγ (p110γ) Recombinant Human Protein (Homo sapiens (Human), UniProt P48736); test: PI3K-γ scintillation proximity assay; assay type: biochemical; conditions: 20 μM PIP2, 2 μM ATP, 13 nM PI3Kγ, 120 min, room temperature
How it was run: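 Radiometric SPA in 20 mM MOPS pH 6.7, 10 mM MgCl2, 5 mM DTT, 0.03% CHAPS, 2% DMSO. Stopped with EDTA and WGA SPA beads for scintillation counting. IC50 fitted from % solvent-control activity versus log concentration.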

[2] = tested on: Phosphorylated Ribosomal Protein S6 (RPS6) in THP-1 cells; test: THP-1 RPS6 ELISA assay; assay type: cell-based, Human; conditions: serum starved, 2 h compound, 10 nM MCP-1 for 15 min, phospho-RPS6 ELISA, read-out: PI3Kγ_THP1_RPS6_ELISA IC50
Protocol: Example A. THP-1 RPS6 ELISA Assay
To measure the Phosphorylated Ribosomal Protein S6 (RPS6) in cell lysates, THP-1 cells (Human Acute Monocytic Leukemia) are purchased from ATCC (Manassas, Va.) and maintained in RPMI with 10% FBS (Gibco/Life Technologies, Carlsbad, Calif.). For the assay, THP-1 cells are serum starved overnight in RPMI, then plated in RPMI (2×10^5 cells/well in 90 μL) into 96-well flat-bottom tissue culture treated plates (Corning, Corning, N.Y.), in the presence or absence of a concentration range of test compounds. Covered plates are incubated for 2 hours at 37° C., 5% CO2 then treated with or without 10 nM MCP-1 (MYBioSource, San Diego, Calif.) for 15 minutes at 37° C., 5% CO2. Plates are centrifuged at 1600 RPM and supernatants are removed. Cells are lysed in Lysis Buffer (Cell Signaling, Danvers, Mass.) with Protease Inhibitor (Calbiochem/EMD, Germany), PMSF (Sigma, St Louis Mo.), HALTS (Thermo Fisher, Rockford, Ill.) for 30 min on wet ice. Cell lysates are frozen at −80° C. before testing. The lysates are tested in the Human/Mouse/Rat Phospho-RPS6 ELISA (R&D Systems, Inc. Minn, Minn.). The plate is measured using a microplate reader (SpectraMax M5—Molecular Devices, LLC Sunnyvale, Calif.) set to 450 nm with a wavelength correction of 540. IC50 determination is performed by fitting the curve of inhibitor percent inhibition versus the log of the inhibitor concentration using the GraphPad Prism 5.0 software.

[3] = target: PI3Kδ (p110δ/p85α) Recombinant Human Protein (Homo sapiens (Human), UniProt O00329); test: PI3Kδ scintillation proximity assay; assay type: biochemical; conditions: 20 μM PIP2, 2 μM ATP, 3.4 nM PI3Kδ, 120 min, room temperature; read-out: PI3Kδ IC50
How it was run: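 Recombinant human p110δ/p85α was run at room temperature in 20 mM MOPS pH 6.7, 10 mM MgCl2, 5 mM DTT, 0.03% CHAPS, 2% DMSO. Substrates were 20 µM PIP2 and 2 µM ATP with [γ-33P]ATP. Product was captured overnight on WGA SPA beads and counted by scintillation; IC50 fitted from percent of solvent control versus log concentration.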

[4] = Homo sapiens, THP-1, THP-1 cells

Chain of PI3Kδ (p110δ/p85α) Recombinant Human Protein (O00329 whole entry): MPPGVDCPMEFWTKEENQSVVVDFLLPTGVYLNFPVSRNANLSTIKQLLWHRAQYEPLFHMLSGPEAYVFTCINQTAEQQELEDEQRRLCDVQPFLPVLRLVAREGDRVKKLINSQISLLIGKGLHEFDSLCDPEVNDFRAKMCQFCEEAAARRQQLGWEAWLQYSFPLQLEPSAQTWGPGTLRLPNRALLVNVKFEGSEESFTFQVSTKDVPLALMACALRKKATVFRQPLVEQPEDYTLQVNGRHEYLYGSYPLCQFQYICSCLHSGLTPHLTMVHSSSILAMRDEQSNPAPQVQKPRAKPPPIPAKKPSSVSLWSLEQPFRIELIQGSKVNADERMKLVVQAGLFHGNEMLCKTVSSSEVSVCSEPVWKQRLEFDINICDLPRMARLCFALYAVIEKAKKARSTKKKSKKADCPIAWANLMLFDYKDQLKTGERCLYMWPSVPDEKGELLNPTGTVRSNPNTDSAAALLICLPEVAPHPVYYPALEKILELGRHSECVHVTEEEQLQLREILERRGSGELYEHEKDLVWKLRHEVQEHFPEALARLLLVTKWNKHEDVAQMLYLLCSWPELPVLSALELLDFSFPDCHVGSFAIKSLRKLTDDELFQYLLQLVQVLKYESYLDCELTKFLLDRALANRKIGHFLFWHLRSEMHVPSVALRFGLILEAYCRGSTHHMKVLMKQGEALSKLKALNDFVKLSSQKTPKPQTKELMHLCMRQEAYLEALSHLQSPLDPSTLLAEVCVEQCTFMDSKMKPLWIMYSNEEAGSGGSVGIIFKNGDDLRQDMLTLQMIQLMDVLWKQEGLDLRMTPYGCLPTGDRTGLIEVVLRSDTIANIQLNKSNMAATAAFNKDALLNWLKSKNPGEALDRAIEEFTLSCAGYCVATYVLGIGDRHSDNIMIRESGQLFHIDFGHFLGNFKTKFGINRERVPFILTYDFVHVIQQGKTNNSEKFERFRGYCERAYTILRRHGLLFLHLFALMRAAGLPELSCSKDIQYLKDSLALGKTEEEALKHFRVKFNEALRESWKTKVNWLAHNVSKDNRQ
Chain of PI3Kδ (p110δ/p85α) Recombinant Human Protein (P27986 whole entry partner): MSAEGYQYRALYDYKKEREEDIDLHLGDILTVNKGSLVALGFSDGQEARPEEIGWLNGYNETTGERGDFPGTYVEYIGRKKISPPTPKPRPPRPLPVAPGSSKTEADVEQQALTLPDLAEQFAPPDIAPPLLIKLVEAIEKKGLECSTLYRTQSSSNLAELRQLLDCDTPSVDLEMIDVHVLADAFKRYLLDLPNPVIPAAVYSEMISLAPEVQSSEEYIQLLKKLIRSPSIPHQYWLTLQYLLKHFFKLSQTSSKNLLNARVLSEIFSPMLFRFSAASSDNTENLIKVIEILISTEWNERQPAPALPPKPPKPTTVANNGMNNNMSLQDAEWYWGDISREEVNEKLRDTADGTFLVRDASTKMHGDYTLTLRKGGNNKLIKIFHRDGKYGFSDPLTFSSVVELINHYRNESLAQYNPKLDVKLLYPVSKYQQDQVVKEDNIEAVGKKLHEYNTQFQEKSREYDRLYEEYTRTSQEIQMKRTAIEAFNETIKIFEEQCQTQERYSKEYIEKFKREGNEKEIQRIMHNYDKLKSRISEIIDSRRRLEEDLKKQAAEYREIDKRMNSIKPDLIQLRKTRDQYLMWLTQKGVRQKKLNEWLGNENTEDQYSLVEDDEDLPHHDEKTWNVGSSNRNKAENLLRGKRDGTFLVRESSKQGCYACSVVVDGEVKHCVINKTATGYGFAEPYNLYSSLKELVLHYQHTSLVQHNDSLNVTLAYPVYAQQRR
Chain of PI3Kγ (p110γ) Recombinant Human Protein (P48736 whole entry): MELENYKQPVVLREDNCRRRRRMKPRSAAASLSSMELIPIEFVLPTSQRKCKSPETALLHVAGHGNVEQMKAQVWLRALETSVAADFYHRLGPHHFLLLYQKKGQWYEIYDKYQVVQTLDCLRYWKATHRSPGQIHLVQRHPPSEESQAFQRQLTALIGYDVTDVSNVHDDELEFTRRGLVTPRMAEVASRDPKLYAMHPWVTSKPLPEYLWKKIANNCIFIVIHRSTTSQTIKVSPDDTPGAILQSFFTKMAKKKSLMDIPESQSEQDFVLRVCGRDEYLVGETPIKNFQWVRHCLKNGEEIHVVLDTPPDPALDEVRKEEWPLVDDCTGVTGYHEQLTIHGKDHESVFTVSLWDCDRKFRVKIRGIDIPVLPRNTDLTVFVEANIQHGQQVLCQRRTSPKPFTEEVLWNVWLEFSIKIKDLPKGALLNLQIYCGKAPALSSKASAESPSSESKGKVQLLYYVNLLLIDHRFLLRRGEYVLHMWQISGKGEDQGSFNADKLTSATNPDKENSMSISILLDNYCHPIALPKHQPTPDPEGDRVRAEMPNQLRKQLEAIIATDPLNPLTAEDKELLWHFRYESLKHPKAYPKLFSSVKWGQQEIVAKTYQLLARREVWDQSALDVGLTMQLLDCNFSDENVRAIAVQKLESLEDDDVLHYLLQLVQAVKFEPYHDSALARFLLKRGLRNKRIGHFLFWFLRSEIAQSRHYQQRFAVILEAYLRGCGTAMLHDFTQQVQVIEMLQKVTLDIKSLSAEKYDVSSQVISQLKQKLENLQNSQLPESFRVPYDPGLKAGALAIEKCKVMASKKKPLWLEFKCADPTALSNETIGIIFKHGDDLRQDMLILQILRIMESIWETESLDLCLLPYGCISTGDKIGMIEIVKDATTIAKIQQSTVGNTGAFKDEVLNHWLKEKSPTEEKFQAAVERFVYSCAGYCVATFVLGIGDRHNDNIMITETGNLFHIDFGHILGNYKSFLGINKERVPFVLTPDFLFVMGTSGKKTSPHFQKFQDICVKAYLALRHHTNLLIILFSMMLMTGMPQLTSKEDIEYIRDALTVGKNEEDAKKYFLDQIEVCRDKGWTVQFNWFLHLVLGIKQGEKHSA

Molecule	IC50 [1] [nM]	IC50 [2, 4] [nM]	IC50 [3] [nM]	IC50 ([2]; THP-1 cells) [nM]
Cc1ccc(C(C)(O)C(F)F)cc1-c1cnc2c(N)nc(-c3c(C)cnn3C)cn12 (stereo not drawn) [Example 42, 2-(3-(8-Amino-6-(1,4-dimethyl-1H-pyrazol-5-yl)imidazo[1,2-a]pyrazin-3-yl)-4-methylphenyl)-1,1-difluoropropan-2-ol]	< 100	100 to 500	100 to 500	–
Cc1ccc(C(O)(C(N)=O)C(F)(F)F)cc1-c1cnc2c(N)nc(C(=O)NCC(C)(C)O)cn12 (stereo not drawn) [Example 284, 8-Amino-3-(5-(3-amino-1,1,1-trifluoro-2-hydroxy-3-oxopropan-2-yl)-2-methylphenyl)-N-(2-hydroxy-2-methylpropyl)imidazo[1,2-a]pyrazine-6-carboxamide]	< 100	< 100	100 to 500	–
Cc1cc(CNC(=O)c2cn3c(-c4cc(C(C)(O)C(F)(F)F)ccc4C)cnc3c(N)n2)on1 (stereo not drawn) [Example 22, 8-Amino-3-(2-methyl-5-(1,1,1-trifluoro-2-hydroxypropan-2-yl)phenyl)-N-((3-methylisoxazol-5-yl)methyl)imidazo[1,2-a]pyrazine-6-carboxamide, TFA]	< 100	100 to 500	< 100	–
Cc1ccc(C(C)(O)C(F)(F)F)cc1-c1cnc2c(N)nc(C(=O)NC34CC(C#N)(C3)C4)cn12 (stereo not drawn) [Example 278, 8-Amino-N-(3-cyanobicyclo[1.1.1]pentan-1-yl)-3-(2-methyl-5-(1,1,1-trifluoro-2-hydroxypropan-2-yl)phenyl)imidazo[1,2-a]pyrazine-6-carboxamide trifluoroacetate salt]	< 100	100 to 500	100 to 500	–
Cc1ccc(C(O)(CO)C(F)(F)F)cc1-c1cnc2c(N)nc(C(F)(F)F)cn12 (single isomer, unassigned) [Example 73, 2-(3-(8-Amino-6-(trifluoromethyl)imidazo[1,2-a]pyrazin-3-yl)-4-methylphenyl)-3,3,3-trifluoropropane-1,2-diol]	< 100	–	100 to 500	500 to 1000
CNC(=O)C(C)(C)C(O)(c1ccc(C)c(-c2cnc3c(N)nc(C(F)(F)F)cn23)c1)C(F)(F)F (stereo not drawn) [Example 262, 3-(3-(8-Amino-6-(trifluoromethyl)imidazo[1,2-a]pyrazin-3-yl)-4-methylphenyl)-4,4,4-trifluoro-3-hydroxy-N,2,2-trimethylbutanamide]	< 100	> 1000	100 to 500	–
Cc1ccc(C(C)(O)C(F)F)cc1-c1cnc2c(N)nc(-c3cnn(C)c3)cn12 (stereo not drawn) [Example 37, 2-(3-(8-Amino-6-(1-methyl-1H-pyrazol-4-yl)imidazo[1,2-a]pyrazin-3-yl)-4-methylphenyl)-1,1-difluoropropan-2-ol]	< 100	< 100	< 100	–
Cc1ccc(C(C)(O)C(F)F)cc1-c1cnc2c(N)nc(-c3ccnc(C)c3F)cn12 (stereo not drawn) [Example 35, 2-(3-(8-Amino-6-(3-fluoro-2-methylpyridin-4-yl)imidazo[1,2-a]pyrazin-3-yl)-4-methylphenyl)-1,1-difluoropropan-2-ol]	< 100	< 100	< 100	–
Cc1ccc(C(O)(c2nnnn2C)C(F)(F)F)cc1-c1cnc2c(N)nc(C(F)(F)F)cn12 (stereo not drawn) [Example 13, 1-(3-(8-Amino-6-(trifluoromethyl)imidazo[1,2-a]pyrazin-3-yl)-4-methylphenyl)-2,2,2-trifluoro-1-(1-methyl-1H-tetrazol-5-yl)ethan-1-ol trifluoroacetate]	< 100	100 to 500	100 to 500	–
Cc1cc(-c2cn3c(-c4cc(C(C)(O)C(F)F)ccc4C)cnc3c(N)n2)on1 (stereo not drawn) [Example 48, 2-(3-(8-Amino-6-(3-methylisoxazol-5-yl)imidazo[1,2-a]pyrazin-3-yl)-4-methylphenyl)-1,1-difluoropropan-2-ol trifluoroacetate]	< 100	100 to 500	100 to 500	–
Cc1ccc(C(O)(C(=O)NC2(C)CNC2)C(F)(F)F)cc1-c1cnc2c(N)nc(C(F)(F)F)cn12 (stereo not drawn) [Example 128, 2-(3-(8-Amino-6-(trifluoromethyl)imidazo[1,2-a]pyrazin-3-yl)-4-methylphenyl)-3,3,3-trifluoro-2-hydroxy-N-(3-methylazetidin-3-yl)propanamide trifluoroacetate salt]	< 100	< 100	< 100	–
CCC(O)(c1ccc(C)c(-c2cnc3c(N)nc(-c4ccnn4C)cn23)c1)C(F)F (stereo not drawn) [Example 50, 2-(3-(8-Amino-6-(1-methyl-1H-pyrazol-5-yl)imidazo[1,2-a]pyrazin-3-yl)-4-methylphenyl)-1,1-difluorobutan-2-ol trifluoroacetate]	< 100	100 to 500	100 to 500	–
Cc1ccc(C(C)(O)C(F)F)cc1-c1cnc2c(N)nc(-c3cn(C)nc3C)cn12 (stereo not drawn) [Example 38, 2-(3-(8-Amino-6-(1,3-dimethyl-1H-pyrazol-4-yl)imidazo[1,2-a]pyrazin-3-yl)-4-methylphenyl)-1,1-difluoropropan-2-ol]	< 100	< 100	< 100	–
Cc1ccc(C(O)(C(N)=O)C(F)(F)F)cc1-c1cnc2c(N)nc(C(=O)NC3CCOCC3)cn12 (stereo not drawn) [Example 285, 8-Amino-3-(5-(3-amino-1,1,1-trifluoro-2-hydroxy-3-oxopropan-2-yl)-2-methylphenyl)-N-(tetrahydro-2H-pyran-4-yl)imidazo[1,2-a]pyrazine-6-carboxamide]	< 100	100 to 500	500 to 2000	–
2-(3-(8-Amino-6-(3-methyl-1H-pyrazol-4-yl)imidazo[1,2-a]pyrazin-3-yl)-4-methylphenyl)-1,1-difluoropropan-2-ol, 1.2TFA [Example 47]	< 100	–	< 100	< 100
Cc1ncc(-c2cn3c(-c4cc(C(C)(O)C(F)F)ccc4C)cnc3c(N)n2)s1 (stereo not drawn) [Example 34, 2-(3-(8-Amino-6-(2-methylthiazol-5-yl)imidazo[1,2-a]pyrazin-3-yl)-4-methylphenyl)-1,1-difluoropropan-2-ol]	< 100	100 to 500	< 100	–
CNC(=O)C1CC1c1cn2c(-c3cc(C(C)(O)C(F)F)ccc3C)cnc2c(N)n1 (stereo not drawn) [Example 76, 2-(8-Amino-3-(5-(1,1-difluoro-2-hydroxypropan-2-yl)-2-methylphenyl)imidazo[1,2-a]pyrazin-6-yl)-N-methylcyclopropane-1-carboxamide]	< 100	100 to 500	100 to 500	–
Cc1ccc(C(O)C(F)(F)F)cc1-c1cnc2c(N)nc(C(F)(F)F)cn12 (stereo not drawn) [Example 23, 1-(3-(8-Amino-6-(trifluoromethyl)imidazo[1,2-a]pyrazin-3-yl)-4-methylphenyl)-2,2,2-trifluoroethan-1-ol trifluoroacetate salt]	< 100	500 to 1000	500 to 2000	–
Cc1ccc(C(C)(O)C(F)F)cc1-c1cnc2c(N)nc(-c3cnn(C4(CC#N)CN(C(=O)C5CCC5)C4)c3)cn12 (stereo not drawn) [Example 100, 2-(3-(4-(8-amino-3-(5-(1,1-difluoro-2-hydroxypropan-2-yl)-2-methylphenyl)imidazo[1,2-a]pyrazin-6-yl)-1H-pyrazol-1-yl)-1-(cyclobutanecarbonyl)azetidin-3-yl)acetonitrile]	< 100	100 to 500	100 to 500	–
Cc1ccc(C(O)(CO)C(F)(F)F)cc1-c1cnc2c(N)nc(C(F)(F)F)cn12 (single isomer, unassigned) [Example 72, 2-(3-(8-Amino-6-(trifluoromethyl)imidazo[1,2-a]pyrazin-3-yl)-4-methylphenyl)-3,3,3-trifluoropropane-1,2-diol]	< 100	–	100 to 500	< 100
Cc1ccc(C(C)(O)C(F)(F)F)cc1-c1cnc2c(N)nc(C(F)(F)F)cn12 (stereo not drawn) [Example 4, 2-(3-(8-Amino-6-(trifluoromethyl)imidazo[1,2-a]pyrazin-3-yl)-4-methylphenyl)-1,1,1-trifluoropropan-2-ol]	< 100	100 to 500	100 to 500	–
